Key:
[1] = Solubility of linker-payloads and quenched linker-payloads; format: physicochemical; details: quenched linker-payloads, Table 6a
Excerpt: The quenched linker-payloads were water soluble and used for the pH stability test.

[2] = pH stability of quenched linker-payloads in buffers (LCMS); format: physicochemical; details: for percentage of the remaining compound: RT
In short: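 Payloads or quenched linker-payloads at 0.2 mg/mL initial concentration in DMSO/PBS (1/5, v/v) were tested at pH 3, 4, 5, 6, 7.4 and 8.5. Samples were incubated at RT. Stability was monitored by LCMS from 1 hr to 21 days.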

[3] = Solubility of quenched linker-payloads; details: Table 3c, linker-payloads quenched with taurine-PEG4-azide or CD-N3

CCCC1O[C@@H]2C[C@H]3[C@@H]4CCC5=CC(=O)C=C[C@]5(C)[C@H]4[C@@H](O)C[C@]3(C)[C@]2(C(=O)COCN(C)C(=O)CNC(=O)OCc2ccc(NC(=O)[C@H](CCCNC(N)=O)NC(=O)[C@@H](NC(=O)CCOCCOCCOCCOCCNC(=O)CCC(=O)N3Cc4ccccc4-c4c(nnn4CCOCCOCCOCCOCCC(=O)NCCS(=O)(=O)O)-c4ccccc43)C(C)C)cc2)O1 (stereo partly drawn) [Q1L1-PII-8]
Solubility [1]: >1000 µg/mL
percentage of the remaining compound ([2]; DMSO, 1 Day): 100%
percentage of the remaining compound ([2]; DMSO, 2 Day): 100%
percentage of the remaining compound ([2]; DMSO, 3 Day): 100%
percentage of the remaining compound ([2]; DMSO, 4 Day): 100%
percentage of the remaining compound ([2]; DMSO, 7 Day): 100%
percentage of the remaining compound ([2]; DMSO, 1 hr): 100%
percentage of the remaining compound ([2]; DMSO, 4 hr): 100%
percentage of the remaining compound ([2]; pH 3.0, 1 Day): 93%
percentage of the remaining compound ([2]; pH 3.0, 2 Day): 89%
percentage of the remaining compound ([2]; pH 3.0, 3 Day): 84%
percentage of the remaining compound ([2]; pH 3.0, 4 Day): 79%
percentage of the remaining compound ([2]; pH 3.0, 7 Day): 65%
percentage of the remaining compound ([2]; pH 3.0, 1 hr): 100%
percentage of the remaining compound ([2]; pH 3.0, 4 hr): 100%
percentage of the remaining compound ([2]; pH 4.0, 1 Day): 100%
percentage of the remaining compound ([2]; pH 4.0, 2 Day): 99%
percentage of the remaining compound ([2]; pH 4.0, 3 Day): 99%
percentage of the remaining compound ([2]; pH 4.0, 4 Day): 98%
percentage of the remaining compound ([2]; pH 4.0, 7 Day): 96%
percentage of the remaining compound ([2]; pH 4.0, 1 hr): 100%
percentage of the remaining compound ([2]; pH 4.0, 4 hr): 100%
LP: percentage of linker-payloads remaining ([2]; pH 4.0, day 1): 100%
P: percentage of budesonide released from the linker-payloads ([2]; pH 4.0, day 1): 0%
LP: percentage of linker-payloads remaining ([2]; pH 4.0, day 2): 99%
P: percentage of budesonide released from the linker-payloads ([2]; pH 4.0, day 2): 0%
LP: percentage of linker-payloads remaining ([2]; pH 4.0, day 7): 96%
P: percentage of budesonide released from the linker-payloads ([2]; pH 4.0, day 7): 3%
percentage of the remaining compound ([2]; pH 5.0, 1 Day): 100%
percentage of the remaining compound ([2]; pH 5.0, 2 Day): 100%
percentage of the remaining compound ([2]; pH 5.0, 3 Day): 100%
percentage of the remaining compound ([2]; pH 5.0, 4 Day): 100%
percentage of the remaining compound ([2]; pH 5.0, 7 Day): 100%
percentage of the remaining compound ([2]; pH 5.0, 1 hr): 100%
percentage of the remaining compound ([2]; pH 5.0, 4 hr): 100%
LP: percentage of linker-payloads remaining ([2]; pH 5.0, day 1): 100%
P: percentage of budesonide released from the linker-payloads ([2]; pH 5.0, day 1): 0%
LP: percentage of linker-payloads remaining ([2]; pH 5.0, day 2): 100%
P: percentage of budesonide released from the linker-payloads ([2]; pH 5.0, day 2): 0%
LP: percentage of linker-payloads remaining ([2]; pH 5.0, day 7): 100%
P: percentage of budesonide released from the linker-payloads ([2]; pH 5.0, day 7): 0%
percentage of the remaining compound ([2]; pH 7.4, 1 Day): 100%
percentage of the remaining compound ([2]; pH 7.4, 2 Day): 100%
percentage of the remaining compound ([2]; pH 7.4, 3 Day): 100%
percentage of the remaining compound ([2]; pH 7.4, 4 Day): 100%
percentage of the remaining compound ([2]; pH 7.4, 7 Day): 100%
percentage of the remaining compound ([2]; pH 7.4, 1 hr): 100%
percentage of the remaining compound ([2]; pH 7.4, 4 hr): 100%
LP: percentage of linker-payloads remaining ([2]; pH 7.4, day 1): 100%
P: percentage of budesonide released from the linker-payloads ([2]; pH 7.4, day 1): 0%
LP: percentage of linker-payloads remaining ([2]; pH 7.4, day 2): 100%
P: percentage of budesonide released from the linker-payloads ([2]; pH 7.4, day 2): 0%
LP: percentage of linker-payloads remaining ([2]; pH 7.4, day 7): 100%
P: percentage of budesonide released from the linker-payloads ([2]; pH 7.4, day 7): 0%
Solubility [3]: >1000 µg/mL

CCCC1O[C@@H]2C[C@H]3[C@@H]4CCC5=CC(=O)C=C[C@]5(C)[C@H]4[C@@H](O)C[C@]3(C)[C@]2(C(=O)COC2CCCN2C(=O)CNC(=O)CCOCCOCCOCCOCCNC(=O)CCC(=O)N2Cc3ccccc3-c3c(nnn3CC3OC4OC5C(CO)OC(OC6C(CO)OC(OC7C(CO)OC(OC8C(CO)OC(OC9C(CO)OC(OC3C(O)C4O)C(O)C9O)C(O)C8O)C(O)C7O)C(O)C6O)C(O)C5O)-c3ccccc32)O1 (stereo partly drawn) [Q2L6-PII-9]
Solubility [1]: >1000 µg/mL
percentage of the remaining compound ([2]; DMSO, 1 Day): 100%
percentage of the remaining compound ([2]; DMSO, 2 Day): 100%
percentage of the remaining compound ([2]; DMSO, 3 Day): 100%
percentage of the remaining compound ([2]; DMSO, 4 Day): 100%
percentage of the remaining compound ([2]; DMSO, 7 Day): 92%
percentage of the remaining compound ([2]; DMSO, 4 hr): 100%
percentage of the remaining compound ([2]; pH 3.0, 1 Day): 0%
percentage of the remaining compound ([2]; pH 3.0, 4 hr): 8%
percentage of the remaining compound ([2]; pH 4.0, 1 Day): 25%
percentage of the remaining compound ([2]; pH 4.0, 2 Day): 8%
percentage of the remaining compound ([2]; pH 4.0, 3 Day): 2%
percentage of the remaining compound ([2]; pH 4.0, 4 Day): 0%
percentage of the remaining compound ([2]; pH 4.0, 4 hr): 71%
percentage of the remaining compound ([2]; pH 5.0, 1 Day): 92%
percentage of the remaining compound ([2]; pH 5.0, 2 Day): 86%
percentage of the remaining compound ([2]; pH 5.0, 3 Day): 82%
percentage of the remaining compound ([2]; pH 5.0, 4 Day): 69%
percentage of the remaining compound ([2]; pH 5.0, 7 Day): 66%
percentage of the remaining compound ([2]; pH 5.0, 4 hr): 100%
percentage of the remaining compound ([2]; pH 7.4, 1 Day): 100%
percentage of the remaining compound ([2]; pH 7.4, 2 Day): 100%
percentage of the remaining compound ([2]; pH 7.4, 3 Day): 100%
percentage of the remaining compound ([2]; pH 7.4, 4 Day): 100%
percentage of the remaining compound ([2]; pH 7.4, 7 Day): 100%
percentage of the remaining compound ([2]; pH 7.4, 1 hr): 100%
percentage of the remaining compound ([2]; pH 7.4, 4 hr): 100%
Solubility [3]: >1000 µg/mL

CCCC1O[C@@H]2C[C@H]3[C@@H]4CCC5=CC(=O)C=C[C@]5(C)[C@H]4[C@@H](O)C[C@]3(C)[C@]2(C(=O)COCNC(=O)CNC(=O)CCC(=O)N2Cc3ccccc3-c3c(nnn3CC3OC4OC5C(CO)OC(OC6C(CO)OC(OC7C(CO)OC(OC8C(CO)OC(OC9C(CO)OC(OC3C(O)C4O)C(O)C9O)C(O)C8O)C(O)C7O)C(O)C6O)C(O)C5O)-c3ccccc32)O1 (stereo partly drawn) [Q2L7-PII-1]
Solubility [1]: >1000 µg/mL
percentage of the remaining compound ([2]; DMSO, 1 Day): 97%
percentage of the remaining compound ([2]; DMSO, 2 Day): 97%
percentage of the remaining compound ([2]; DMSO, 3 Day): 97%
percentage of the remaining compound ([2]; DMSO, 4 Day): 97%
percentage of the remaining compound ([2]; DMSO, 7 Day): 97%
percentage of the remaining compound ([2]; DMSO, 1 hr): 97%
percentage of the remaining compound ([2]; DMSO, 4 hr): 97%
percentage of the remaining compound ([2]; pH 3.0, 1 Day): 100%
percentage of the remaining compound ([2]; pH 3.0, 2 Day): 100%
percentage of the remaining compound ([2]; pH 3.0, 3 Day): 96%
percentage of the remaining compound ([2]; pH 3.0, 4 Day): 95%
percentage of the remaining compound ([2]; pH 3.0, 7 Day): 91%
percentage of the remaining compound ([2]; pH 3.0, 1 hr): 100%
percentage of the remaining compound ([2]; pH 3.0, 4 hr): 100%
percentage of the remaining compound ([2]; pH 4.0, 1 Day): 100%
percentage of the remaining compound ([2]; pH 4.0, 2 Day): 100%
percentage of the remaining compound ([2]; pH 4.0, 3 Day): 100%
percentage of the remaining compound ([2]; pH 4.0, 4 Day): 100%
percentage of the remaining compound ([2]; pH 4.0, 7 Day): 100%
percentage of the remaining compound ([2]; pH 4.0, 1 hr): 100%
percentage of the remaining compound ([2]; pH 4.0, 4 hr): 100%
percentage of the remaining compound ([2]; pH 5.0, 1 Day): 100%
percentage of the remaining compound ([2]; pH 5.0, 2 Day): 100%
percentage of the remaining compound ([2]; pH 5.0, 3 Day): 100%
percentage of the remaining compound ([2]; pH 5.0, 4 Day): 100%
percentage of the remaining compound ([2]; pH 5.0, 7 Day): 100%
percentage of the remaining compound ([2]; pH 5.0, 1 hr): 100%
percentage of the remaining compound ([2]; pH 5.0, 4 hr): 100%
percentage of the remaining compound ([2]; pH 7.4, 1 Day): 100%
percentage of the remaining compound ([2]; pH 7.4, 2 Day): 100%
percentage of the remaining compound ([2]; pH 7.4, 3 Day): 100%
percentage of the remaining compound ([2]; pH 7.4, 4 Day): 100%
percentage of the remaining compound ([2]; pH 7.4, 7 Day): 100%
percentage of the remaining compound ([2]; pH 7.4, 1 hr): 100%
percentage of the remaining compound ([2]; pH 7.4, 4 hr): 100%
Solubility [3]: >1000 µg/mL

From patent publication US20230119539A1, “TRACELESS LINKERS AND PROTEIN-CONJUGATES THEREOF” (Regeneron Pharmaceuticals, Inc., priority 2019, published 2023)
